Assay results taken from patent US20040152674A1, “Pharmaceutically active compounds and methods of use thereof” (Trustees of Tufts College, priority 1998, published 2004).

Columns and labels:
Experiment in all cases: MIC by broth dilution method (Table 4)
Type in all cases: cell-based
Design in all cases: unit not given here
E. coli D31m4(pHCM1) = E. coli D31m4(pHCM1) Tcr; 18 hours
Procedure: (§1) The minimum inhibitory concentration, the lowest concentration of drug that inhibits bacterial growth at 18 hours at their appropriate temperature, is determined by the broth dilution method using L-broth or Muller-Hinton broth. The Muller-Hinton broth was cation-adjusted accordingly and all bacteriological methods were performed as was described by Waitz, J. A., National Commision for Clinical Laboratory Standards Document M7-A2, vol.10, no. 8, pp.13-20, 2nd edition, Villanova, Pa. (1990). The organisms tested represent gram-positive and gram-negative bacterial species that are susceptible to tetracyclines or are resistant to tetracyclines due to the ability to efflux tetracyclines or which confer resistance by ribosomal protection mechanisms. The clinical strains used are either susceptible to tetracyclines or are resistant to them by either drug efflux or ribosomal protection.

S. aureus MRSA5 = S. aureus MRSA5 Tc^r; 18 hours
Procedure: as §1

E. faecalis ATCC9790 = conditions: E. faecalis Tc^r ATCC9790; 18 hours
Procedure: as §1

S. aureus RN450 = S. aureus RN450 Tc^s; 18 hours
Procedure: as §1

E. coli D31m4 = conditions: E. coli D31m4* Tc^r, lipopolysaccharide-deficient mutant; 18 hours
Procedure: as §1

E. faecalis pAM211 = E. faecalis pAM211 Tc^r; 18 hours
Procedure: as §1

S. aureus ATCC12715 = conditions: S. aureus Tc^r ATCC12715; 18 hours
Procedure: as §1

S. aureus RN4250 = S. aureus RN4250 Tc^r; 18 hours
Procedure: as §1

E. faecalis pMV158 = E. faecalis pMV158 Tc^r; 18 hours
Procedure: as §1

Row | Compound | Antibacterial activity (minimum inhibitory concentration) (E. coli D31m4(pHCM1)) | Antibacterial activity (minimum inhibitory concentration) (S. aureus MRSA5) | Antibacterial activity (minimum inhibitory concentration) (E. faecalis ATCC9790) | Antibacterial activity (minimum inhibitory concentration) (S. aureus RN450) | Antibacterial activity (minimum inhibitory concentration) (E. coli D31m4) | Antibacterial activity (minimum inhibitory concentration) (E. faecalis pAM211) | Antibacterial activity (minimum inhibitory concentration) (S. aureus ATCC12715) | Antibacterial activity (minimum inhibitory concentration) (S. aureus RN4250) | Antibacterial activity (minimum inhibitory concentration) (E. faecalis pMV158)
1 | CC(=O)OC(CCC(C)C)c1ccc2c(c1O)C(=O)C1=C(O)C3(O)C(=O)C(C(N)=O)=C(O)C(N(C)C)C3C(O)C1C2C (stereo not drawn) [Compound N, [4S-(4alpha,12aalpha)]-9-[4′-(1′-acetoxy-4′-methyl)pentyl]-4-(dimethylamino)-1,4,4a,5,5a,6,11,12a-octahydro-3,5,10,12,12a-pentahydroxy-6-methyl-1,11-dioxo-2-naphthacenecarboxamide] | 3.12 | 1.56 | 1.56 | 1.56 | 3.12 | 1.56 | 1.56 | 1.56 | 0.78
2 | CC1c2ccc(C3(C)CCC3)c(O)c2C(=O)C2=C(O)[C@]3(O)C(=O)C(C(N)=O)=C(O)[C@@H](N(C)C)C3C(O)C21 (stereo partly drawn) [G, [4S-(4alpha,12aalpha)]-9-[1′-(1′-methyl)cyclobutyl]-4-(dimethylamino)-1,4,4a,5,5a,6,11,12a-octahydro-3,5,10,12,12a-pentahydroxy-6-methyl-1,11-dioxo-2-naphthacenecarboxamide] | 6.25 | 0.08 | 0.78 | 1.56 | 6.25 | – | 3.12 | 3.12 | –
3 | CCC(=O)OC1C2C(=C(O)C3(O)C(=O)C(C(N)=O)=C(O)C(N(C)C)C13)C(=O)c1c(ccc(C(C)(C)C)c1O)C2C (stereo not drawn) [B, [4S-(4alpha,12aalpha)]-9-(tert-butyl)-4-(dimethylamino)-5-propionylcarbonyloxy-1,4,4a,5,5a,6,11,12a-octahydro-3,10,12,12a-tetrahydroxy-6-methyl-1,11-dioxo-2-naphthacenecarboxamide] | 6.25 | 3.12 | 1.56 | 0.39 | 6.25 | 0.78 | 1.56 | 0.78 | 0.39
4 | CC1c2ccc(C(C)(C)CCC[N+](=O)[O-])c(O)c2C(=O)C2=C(O)[C@]3(O)C(=O)C(C(N)=O)=C(O)[C@@H](N(C)C)C3C(O)C21 (stereo partly drawn) [M, [4S-(4alpha,12a-alpha)]-9-[4′-(1′-nitro-4′-methyl)pentyl]-4-(dimethylamino)-1,4,4a,5,5a,6,11,12a-octahydro-3,5,10,12,12a-pentahydroxy-6-methyl-1,11-dioxo-2-naphthacenecarboxamide] | – | 0.78 | 0.78 | 3.12 | 12.5 | 0.78 | 1.56 | 0.78 | 0.78
5 | CC1c2ccc(C3(C)CCCC3)c(O)c2C(=O)C2=C(O)C3(O)C(=O)C(C(N)=O)=C(O)C(N(C)C)C3C(O)C21 (stereo not drawn) [F, [4S-(4alpha,12aalpha)]-9-[1′-(1′-methyl)cyclopentyl]-4-(dimethylamino)-1,4,4a,5,5a,6,11,12a-octahydro-3,5,10,12,12a-pentahydroxy-6-methyl-1,11-dioxo-2-naphthacenecarboxamide] | 1.56 | 0.08 | 0.78 | 0.39 | 0.78 | 0.39 | 0.78 | 0.39 | 0.08
6 | CC1c2ccc(C(C)(C)C)c(O)c2C(=O)C2=C(O)[C@]3(O)C(=O)C(C(N)=O)=C(O)[C@@H](N(C)C)C3C(OC(=O)C3CCC3)C21 (stereo partly drawn) [D, [4S-(4alpha,12aalpha)]-9-(tert-butyl)-4-(dimethylamino)-5-cyclobutylcarbonyloxy-1,4,4a,5,5a,6,11,12a-octahydro-3,10,12,12a-tetrahydroxy-6-methyl-1,11-dioxo-2-naphthacenecarboxamide] | 50 | 1.56 | 0.78 | 0.78 | 50 | – | 3.12 | 3.12 | 50
7 | CC1c2ccc(C(C)(C)CCCC#N)c(O)c2C(=O)C2=C(O)C3(O)C(=O)C(C(N)=O)=C(O)C(N(C)C)C3C(O)C21 (stereo not drawn) [L, [4S-(4alpha,12aalpha)]-9-[4′-(1′-cyano-4′-methyl)pentyl]-4-(dimethylamino)-1,4,4a,5,5a,6,11,12a-octahydro-3,5,10,12,12a-pentahydroxy-6-methyl-1,11-dioxo-2-naphthacenecarboxamide] | – | 6.25 | 3.12 | 1.56 | – | – | 6.25 | 3.12 | –
8 | CC1c2ccc(C(C)(C)C)c(O)c2C(=O)C2=C(O)[C@]3(O)C(=O)C(C(N)=O)=C(O)[C@@H](N(C)C)C3C(O)C21 (stereo partly drawn) [A, [4S-(4alpha,12aalpha)]-9-(tert-butyl)-4-(dimethylamino)-1,4,4a,5,5a,6,11,12a-octahydro-3,5,10,12,12a-pentahydroxy-6-methyl-1,11-dioxo-2-naphthacenecarboxamide] | – | 3.12 | 1.56 | 0.78 | – | – | 3.12 | 1.56 | –
9 | CC1c2ccc(C3(C)CCCCC3)c(O)c2C(=O)C2=C(O)[C@]3(O)C(=O)C(C(N)=O)=C(O)[C@@H](N(C)C)C3C(O)C21 (stereo partly drawn) [E, [4S-(4alpha,12aalpha)]-9-[1′-(1′-methyl)cyclohexyl]-4-(dimethylamino)-1,4,4a,5,5a,6,11,12a-octahydro-3,5,10,12,12a-pentahydroxy-6-methyl-1,11-dioxo-2-naphthacenecarboxamide] | 25 | 6.25 | 0.39 | 1.56 | 25 | – | 6.25 | 6.25 | –
